A short description of series [1]: In vitro drug permeation from plastisol patches through human skin (paper example). The format is in vitro ADME.
Series [2] has as its system BALB/c female mice. Description: Contact hypersensitivity, TNBS sensitization / TNCB ear challenge (ear swelling). It is filed as in vivo. To be noted: 20 µg intradermally; for % SUPPRESSION: TNBS 2.45 mg.
A short description of series [3]: Percutaneous permeation of urocanic acid isomers through human cadaver skin (Franz cell diffusion chambers). To be noted: in words. The format is in vitro ADME. The protocol:
Skin permeation experiments were undertaken to measure the flux of cis-UCA and the trans-UCA) through human skin. This information is required for topical delivery of cis-UCA using a TDS.
cis-UCA was prepared by ultraviolet irradiation of solutions of trans-UCA (obtained from Sigma Chemical Co., St. Louis, MO), as described above (see Example 1 above).
For skin permeation experiments, human cadaver skin was obtained and sectioned on a dermatome to yield a partial thickness skin of about 400 µm. Partial thickness skin samples were transferred to standard Franz cell diffusion chambers with the stratum corneum side up, and equilibrated with phosphate buffered saline (PBS) at pH 7.2. at 35°C in standard thermal blocks (Pierce Reacti-Therm).
Three different solution of UV-irradiated UCA were prepared. All samples were mixtures of both cis-UCA and trans-UCA, contained about between 55% to 67% cis-UCA. The three different solutions (0.5 ml) were applied to the skin samples in the donor chamber of the diffusion chamber, and fractions of the receptor solution (saline) were collected and the amount of cis and trans isomers that permeated through the skin determined by standard HPLC methods. […] The tissue extracts were neutralized and aliquots analyzed by HPLC.

The test system of series [4] is BALB/c female mice. Description: Contact hypersensitivity, TNBS sensitization / TNCB ear challenge (ear swelling). The format is in vivo. To be noted: other experiments, compared with cis-UCA. The protocol: BALB/c female mice were maintained in a specific pathogen-free colony. Age-matched mice between 8 and 12 weeks of age were maintained in filter-protected cages and fed mouse chow and water ad libitum. Lighting was controlled to provide 12 hours light-dark cycles.
A 7% (w/v) working solution of trinitrobenzene sulfonate (TNBS) was prepared in distilled water. […] For induction of sensitization, each of 5 Balb/c mice received epicutaneous application of 35 µg of TNBS via a Hilltop chamber for 5 hours.
A contact hypersensitivity response was elicited on day 5 by challenging the right ear of each mouse with 20 µl of 1% trinitronchlorobenzene (TNCB) (in acetone). Ear thickness was measured with a spring-loaded caliper immediately before challenge, and at 24 and 48 hours after challenge. Ear thickness was measured in mm X 10^-3.
The statistical significance of differences in the contact hypersensitivity response between control and treated mice was determined using Student's t test for two independent variables. Each group contained five mice. Negative control mice were treated for 24 hours with 100 µl of PBS, pH 5.5, and challenged on the right ear 5 days later with 20 µl of 1% TNCB.
The mice were then epicutaneously sensitized with 100 µl of 0.035% TNBS (w/v) in PBS, pH 5.5.
For pretreatment plus co-administration, mice were first pretreated for 24 hours as above. Thereafter, 6000 µg of UCA (100 µl of 6% solution, 60 mg/ml in PBS pH 5.5) were placed in the Hilltop chamber along with 35 µg of TNBS.
Sensitization with TNBS was induced as described above.

This is an account of results in patent publication EP0612525B1, “Transdermal treatment with mast cell degranulating agents for drug-induced hypersensitivity” (BRISTOL-MYERS SQUIBB COMPANY, priority 1993, dated 1994).

The structures appear in SMILES notation.

Regarding `CCCCCCCC/C=C\CCCCCCCC(=O)O` [oleic acid], the “permeation rate of ISDN” value in series [1] is reported as “significantly enhances”.

In the case of `O=C(O)c1cc(=O)c2c(OCC(O)COc3cccc4oc(C(=O)O)cc(=O)c34)cccc2o1` [sodium cromolyn, reference compound], the “suppression of contact sensitization (in words)” value in series [2] is listed as “failed to suppress contact sensitization”. In addition, the “enhancement in the contact sensitivity response” value in series [2] (24 and 48 hours together) is reported as 14-17%. In addition, the “% SUPPRESSION” value is given as “+14.1%” in series [2] (24 Hours) and “+17.0%” in series [2] (48 Hours).

`O=C(O)/C=C/c1cnc[nH]1` [trans-UCA, trans-urocanic acid, reference compound]: the “fluxes through human skin (comparison of isomers)” value in series [3] is on record as “comparable fluxes”. The “suppressive activity on contact sensitization (in words)” value in series [4] was “much less suppressive activity”.
